Measured values from US20220154296A1, “USE OF ANTI-PD-1 ANTIBODY IN PREPARATION OF MEDICAMENT FOR TREATING SOLID TUMORS” (Shanghai Junshi Biosciences Co., Ltd., priority 2019, published 2022).

Assays:
CT-26 cells = test: Inhibitory effect on tumor growth in CT-26 cell-transplanted B-hPD-1 mice; assay type: in vivo
Protocol: CT-26 cells were seeded subcutaneously on the right side of hPD-1 humanized female mice at a concentration of 2.5×10^5 cells/0.1 mL, and the mice were randomly grouped by tumor volume when tumors grew to about 93 mm^3 with 7 mice per group, for a total of 4 groups:
G1: Anti-KLH hIgG4 (1 mg/kg) negative control group;
G3: palbociclib (100 mg/kg);
The experiment was ended 11 days after the first administration. Tumor volume and body weight of mice were measured and recorded twice a week. At the end of the experiment, animals were euthanized and tumor growth inhibition (TGITv%) was calculated.

[1] = tested on: chemotherapy-refractory ESCC; details: chemotherapy-refractory ESCC patients in China; cited from earlier work

Row | Molecule | TGI (%) (CT-26 cells; 11 days after the first administration, toripalimab 1 mg/kg i.p., palbociclib 100 mg/kg orally) | Tumor volume 11 days after the first administration (CT-26 cells; mean ± standard error, toripalimab 1 mg/kg i.p. twice a week, palbociclib 100 mg/kg orally once a day, 7 mice per group) [mm^3] | Anti-tumor activity [1] | Safety [1]
1 | CC(=O)c1c(C)c2cnc(Nc3ccc(N4CCNCC4)cn3)nc2n(C2CCCC2)c1=O [palbociclib, reference compound] | 44.8 | 1550 ± 189 | – | –
2 | SHR-1210: anti-PD-1 antibody SHR-1210, in clinical stage (antibody, chains of the INN, looked up, V domains shown) VH: EVQLVESGGGLVQPGGSLRLSCAASGFTFSSYMMSWVRQAPGKGLEWVATISGGGANTYYPDSVKGRFTISRDNAKNSLYLQMNSLRAEDTAVYYCARQLYYFDYWGQGTTVTVSS VL: DIQMTQSPSSLSASVGDRVTITCLASQTIGTWLTWYQQKPGKAPKLLIYTATSLADGVPSRFSGSGSGTDFTLTISSLQPEDFATYYCQQVYSIPWTFGGGTKVEIK | – | – | effective anti-tumor activity | controllable safety
